Columns and labels:
Type in all cases: in vivo
[1] = tested on: Spodoptera frugiperda; assay: Spodoptera frugiperda test (leaf application), transgenic maize
Excerpt: (§1) A synergistic effect in insecticides and acaricides is always present when the effect of the present invention's combinations is greater than the expected effect, which for a given combination can be calculated after S. R. Colby, Weeds 15 (1967), 20-22 as follows:
(§2) when • X is the kill rate expressed in % of the untreated control on using active compound A at an application rate of m g/ha or in a concentration of m ppm, • Y is the kill rate expressed in % of the untreated control on using active compound B at an application rate of n g/ha or in a concentration of n ppm and • Z is the kill rate expressed in % of the untreated control on using active compound C at an application rate of r g/ha or in a concentration of r ppm, • E is the efficacy on using active compounds A and B and C in application rates of m and n and r g/ha then
(§3) If the actual kill rate is greater than calculated, then the killing effect of the combination is superadditive, i.e., a synergistic effect is present. In this case, the actually observed kill rate has to be greater than that calculated from the above-recited formula for the expected kill rate (E).
Pots each holding 5 transgenic maize plants with Lepidoptera, Coleoptera and/or herbicide resistance are treated in 2 replications against the army worm (Spodoptera frugiperda).
(§4) After the desired time, the kill in % is determined 100% means that all the caterpillars were killed; 0% means that no caterpillars were killed.

[2] = tested on: Spodoptera frugiperda; assay: Spodoptera frugiperda test (leaf application), transgenic cotton
Excerpt: as §1, §2, §3
Individually potted transgenic cotton plants with Lepidoptera resistance and herbicide resistance (line DP444 BG/RR) are treated with the desired product against the army worm (Spodoptera frugiperda)
as §4

[3] = tested on: Spodoptera exigua; assay: Spodoptera exigua test (leaf application), transgenic maize
Excerpt: as §1, §2, §3
Pots each holding 5 transgenic maize plants with Lepidoptera, Coleoptera and/or herbicide resistance are treated in 2 replications against the small mottled willow (Spodoptera exigua).
as §4

[4] = tested on: Spodoptera frugiperda; assay: Spodoptera frugiperda test (drench application), transgenic maize
Excerpt: as §1, §2, §3
The earth of the pots each with 5 transgenic maize plants with Lepidoptera, Coleoptera and/or herbicide resistance is drenched with the desired product. Then, the plants are infected with larvae of the army worm (Spodoptera frugiperda).
as §4

[5] = tested on: Heliothis armigera; assay: Heliothis armigera test (leaf application), transgenic cotton
Excerpt: as §1, §2, §3
Individually potted transgenic cotton plants with Lepidoptera resistance and herbicide resistance (line DP444 BG/RR) are treated with the desired product against the cotton ball worm (Heliothis armigera).
as §4

[6] = tested on: Aphis gossypii; assay: Aphis gossypii test (leaf application), transgenic cotton
Excerpt: as §1, §2
as §3, with “(E). […]” for “(E).”
After the desired time, the kill in % is determined 100% means that all the aphids were killed; 0% means that no aphids were killed.

**Q.** How did the “Kill in % after 4 d” value ([1]; 0.0064 ppm) turn out when `CNC(=O)c1cc(Cl)cc(C)c1NC(=O)c1cc(Br)nn1-c1ncccc1Cl` [(I-1)] was run?
**A.** The value was 0%.

**Q.** And the “Kill in % after 1 d” value ([1]; 0.16 ppm)?
**A.** The value was 0%.

**Q.** What about the “Kill in % after 4 d” value ([2]; 0.032 ppm) of the same compound?
**A.** Its value is 70%.

**Q.** What about the “Kill in % after 6 d” value ([2]; 0.032 ppm) of the same compound?
**A.** Its value is 15%.

**Q.** And the “Kill in % after 4 d” value ([3]; 0.032 ppm)?
**A.** The value was 0%.

**Q.** What about the “Kill in % after 1 d” value ([3]; 0.16 ppm) of the same compound?
**A.** Its value is 0%.

**Q.** And the “Kill in % after 4 d” value ([3]; 0.16 ppm)?
**A.** Its value is 0%.

**Q.** And the “Kill in % after 4 d” value ([4]; 4 ppm)?
**A.** Its value is 0%.

**Q.** And the “Kill in % after 1 d” value ([4]; 20 ppm)?
**A.** Its value is 30%.

**Q.** What about the “Kill in % after 3 d” value ([4]; 20 ppm) of the same compound?
**A.** Its value is 45%.

**Q.** What about the “Kill in % after 4 d” value ([4]; 20 ppm) of the same compound?
**A.** The value was 50%.

**Q.** And the “Kill in % after 4 d” value ([5]; 0.032 ppm)?
**A.** Its value is 50%.

**Q.** What about the “Kill in % after 4 d” value ([6]; 0.16 ppm) of the same compound?
**A.** The value was 0%.

**Q.** `CN/C(=N\[N+](=O)[O-])NCc1cnc(Cl)s1` [Clothianidin] was tested. Which “Kill in % after 4 d” value ([2]; 0.16 ppm) did it give?
**A.** The value was 0%.

**Q.** And the “Kill in % after 1 d” value ([3]; 4 ppm)?
**A.** The value was 0%.

**Q.** What about the “Kill in % after 4 d” value ([4]; 4 ppm) of the same compound?
**A.** Its value is 10%.

**Q.** What about the “Kill in % after 4 d” value ([5]; 0.16 ppm) of the same compound?
**A.** Its value is 0%.

**Q.** For `N#Cc1nn(-c2c(Cl)cc(C(F)(F)F)cc2Cl)c(N)c1[S+]([O-])C(F)(F)F` (stereo not drawn) [Fipronil], which “Kill in % after 4 d” value ([3]; 4 ppm) is on record?
**A.** The value was 0%.

**Q.** And the “Kill in % after 4 d” value ([4]; 20 ppm)?
**A.** Its value is 0%.

**Q.** What about the “Kill in % after 4 d” value ([6]; 4 ppm) of the same compound?
**A.** Its value is 25%.

**Q.** Which results are given for `O=[N+]([O-])NC1=NCCN1Cc1ccc(Cl)nc1` [Imidacloprid]?
**A.** Kill in % after 1 d ([1]; 4 ppm): 0%; Kill in % after 6 d ([2]; 4 ppm): 10%; Kill in % after 1 d ([3]; 4 ppm): 0%; Kill in % after 3 d ([4]; 4 ppm): 0%

**Q.** For Abamectin, which “Kill in % after 1 d” value ([1]; 0.16 ppm) is on record?
**A.** Its value is 10%.

**Q.** And the “Kill in % after 4 d” value ([3]; 0.16 ppm)?
**A.** Its value is 35%.

**Q.** What about the “Kill in % after 1 d” value ([4]; 4 ppm) of the same compound?
**A.** Its value is 0%.

**Q.** And the “Kill in % after 4 d” value ([4]; 4 ppm)?
**A.** Its value is 0%.

**Q.** And the “Kill in % after 4 d” value ([5]; 0.16 ppm)?
**A.** Its value is 30%.

**Q.** Which results are given for Spinosad?
**A.** Kill in % after 4 d ([1]; 0.16 ppm): 0%; Kill in % after 4 d ([3]; 0.16 ppm): 20%; Kill in % after 4 d ([4]; 4 ppm): 0%; Kill in % after 4 d ([5]; 0.16 ppm): 20%

Reference: patent US20130288990A1, “CONTROLLING PESTS BY COMBINING INSECTICIDES AND TRANSGENIC PLANTS BY APPLYING DIRECTLY TO LEAVES AND ROOTS” (priority 2007, published 2013)
